Results taken from patent US6710048B2, “Pyrazine derivatives as modulators of tyrosine kinases” (Ortho-McNeil Pharmaceutical, Inc., priority 2000, dated 2004).
pIC50: −log10 of the molar value. Where two headings read alike, the source gives them in different places.

Biological target: T1, CDK1 (cyclin dependent kinase 1) / cyclin B (Homo sapiens, UniProt P06493)
T1 construct: purchased New England Biolabs 6020; host or cells: insect cells
Assay: CDK1 kinase assay
Type: biochemical
Protocol: The term n.d. means not tested.
Assays to test compound inhibition of other kinases were preformed using methods that measure the amount of phosphorylation of a biotinylated peptide substrate. Biotinylated peptide substrates were selected from the literature as appropriate for the enzyme being evaluated. The general procedure used to assay for kinase activity is as follows: A kinase reaction mix was prepared in 50 mM Tris-HCl pH=8, 10 mM MgCl2, 0.1 mM NaVO4, 1 mM DTT, 5-10 μM ATP, 0.25-1 μM biotinylated peptide substrate, 0.2-0.8 μCuries per well ^33P-γ-ATP [2000-3000 Ci/mmol]. Assay conditions vary slightly for each protein kinase, for example, insulin receptor kinase requires 10 mM MnCl2 for activity and Calmodulin-dependent protein kinase requires calmodulin and 2 mM CaCl2. The reaction mixture was dispensed into the wells of a streptavidin coated Flashplate and 1 μl drug stock in 100% DMSO was added to a 100 μl reaction volume resulting in a final concentration of 1% DMSO in the reaction. Enzyme was diluted in 50 mM Tris-HCl pH=8.0, 0.1% BSA and added to each well. The reaction was incubated for one hour at 30° C. in the presence of compound. After one hour the reaction mix was aspirated from the plate and the plate was washed with PBS containing 100 mM EDTA. The plate was read on a scintillation counter to determine ^33P-γ-ATP incorporated into the immobilized peptide. […] A maximum and minimum signal for the assay was determined on each plate. The IC50 was calculated from the dose response curve of the percent inhibition of the maximum signal in the assay according to the formula [max signal−background/test compound signal−background (100)=% inhibition] by graphing the percent inhibition against the log concentration of test compound. Known inhibitor compounds appropriate for the kinase being assayed were also included on each plate.
VEGF-R (vascular endothelial growth factor receptor-2) is a fusion protein containing a polyhistidine tag at the N-terminus followed by amino acids 786-1343 of the rat VEGF-R2 kinase domain (GenBank Accession #U93306). CDK1 (cyclin dependent kinase 1) is isolated from insect cells expressing both the human CDK1 catalytic subunit and its positive regulatory subunit cyclin B (New England Biolabs, Beverly, Mass., Cat. #6020). CDK4 (cyclin dependent kinase 4) contains amino acids 769 to 921 of the mouse […] protein found in the GST-retinoblastoma protein construct (Santa Cruz Biotechnology, Santa Cruz, Calif.; Cat. #SC-4112). Insulin Receptor Kinase consists of residues 941-1313 of the cytoplasmic domain of the beta-subunit of the human insulin receptor (BIOMOL, Plymouth Meeting, Pa., Cat. #SE-195). Protein Kinase A is the catalytic subunit of cAMP dependent protein kinase-A purified from bovine heart (Upstate Biotech, Lake Placid, N.Y., Cat#14-114). PKC (protein kinase-C) is the gamma or beta isoform of the human protein produced in insect cells (BIOMOL, Plymouth Meeting, Pa., Cat. #SE-143). Casein Kinase 1 is a truncation at amino acid 318 of the C-terminal portion of the rat CK1 delta isoform produced in E.coli (New England Biolabs, Beverly, Mass., Cat. #6030). Casein Kinase 2 includes the alpha and beta subunits of the human CK2 protein produced in E.coli (New England Biolabs, Beverly, Mass., Cat. #6010). Calmodulin Kinase (calmodulin-dependent protein kinase 2) is a truncated version of the alpha subunit of the rat protein produced in insect cells (New England Biolabs, Beverly, Mass., Cat. #6060). Glycogen Synthase Kinase-3 is the beta isoform of the rabbit enzyme produced in E. coli (New England Biolabs, Beverly, Mass., Cat. #6040). MAP Kinase is the rat ERK-2 isoform containing a polyhistidine tag at the N-terminus produced in E. coli. and activated by phosphorylation with MEK1 prior to purification (BIOMOL, Plymouth Meeting, Pa., Cat. #SE-137). EGFR (epidermal growth factor receptor) is purified from human A431 cell membranes (Sigma, St. Louis, Mo., Cat.# E3641). […]

[1] = Table 4 kinase selectivity, 10 = approximate value, read-out: IC50, Assay 2 CDK1
[2] = Tables 1-3, >10 or >100 = no 50% inhibition at highest dose tested, read-out: CDK IC50

T1 sequence (P06493 whole entry): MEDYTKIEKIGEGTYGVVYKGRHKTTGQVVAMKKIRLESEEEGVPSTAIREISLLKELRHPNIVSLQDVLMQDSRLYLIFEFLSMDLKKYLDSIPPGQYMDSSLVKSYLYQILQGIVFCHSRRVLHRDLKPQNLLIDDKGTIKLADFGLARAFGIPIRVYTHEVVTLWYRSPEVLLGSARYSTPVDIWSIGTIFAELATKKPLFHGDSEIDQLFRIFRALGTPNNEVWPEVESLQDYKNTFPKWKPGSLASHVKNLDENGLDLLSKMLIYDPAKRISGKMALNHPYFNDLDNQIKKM
T1 sequence (P14635 whole entry partner): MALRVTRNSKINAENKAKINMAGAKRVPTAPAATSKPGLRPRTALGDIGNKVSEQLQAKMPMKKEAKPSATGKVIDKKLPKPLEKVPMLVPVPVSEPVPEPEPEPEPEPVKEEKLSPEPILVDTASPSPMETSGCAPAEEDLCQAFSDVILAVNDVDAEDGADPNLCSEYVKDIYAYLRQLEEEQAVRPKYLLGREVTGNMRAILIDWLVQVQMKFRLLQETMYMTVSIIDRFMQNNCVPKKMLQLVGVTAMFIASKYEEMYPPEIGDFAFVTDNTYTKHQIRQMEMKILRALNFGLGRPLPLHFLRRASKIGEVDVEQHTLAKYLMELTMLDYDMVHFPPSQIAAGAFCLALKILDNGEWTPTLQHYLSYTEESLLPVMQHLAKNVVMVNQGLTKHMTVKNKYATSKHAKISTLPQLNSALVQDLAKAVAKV

Row | SMILES | pIC50 [1] | pIC50 [2]
1 | OCCCNc1cncc(-c2cncc(Nc3cccc(Cl)c3)n2)c1 [Cmd 4] | < 5.00 | 5.22
2 | OCCCCNc1cncc(-c2cncc(Nc3cccc(Cl)c3)n2)c1 [Cmd 32] | < 4.00 | < 4.00
3 | CN(C)CCNc1cncc(-c2cncc(Nc3cccc(Cl)c3)n2)c1 [Cmd 33, N′-[5-[6-[(3-chlorophenyl)amino]pyrazinyl]-3-pyridinyl]-N^2,N^2-dimethyl-1,2-ethanediamine] | < 5.00 | ~5.00
4 | CN(C)CCCNc1cncc(-c2cncc(Nc3cccc(Cl)c3)n2)c1 [Cmd 35] | < 5.00 | ~5.00
5 | O=C(NCCCO)c1cncc(-c2cncc(Nc3cccc(Cl)c3)n2)c1 [Cmd 39] | 4.46 | 4.46
6 | Clc1cccc(Nc2cncc(-c3cncc(NCCCc4ccncc4)c3)n2)c1 [Cmd 71] | < 4.00 | < 5.00
7 | Clc1cccc(Nc2cncc(-c3cncc(NCCCc4cccnc4)c3)n2)c1 [Cmd 72] | < 4.00 | < 5.00

Continued, values first:

Row | pIC50 [1] | pIC50 [2] | SMILES
8 | 5.21 | 5.49 | Clc1cccc(Nc2cncc(-c3cncc(NCCCN4CCCCC4)c3)n2)c1 [Cmd 73]
9 | < 4.00 | < 5.00 | Clc1cccc(Nc2cncc(-c3cncc(NCCCn4cccn4)c3)n2)c1 [Cmd 75]
10 | < 4.00 | < 5.00 | Clc1cccc(Nc2cncc(-c3cncc(NCCCn4cncn4)c3)n2)c1 [Cmd 76]
